Target: Human TRPA1 (Homo sapiens, UniProt O75762)
Experiment: cell-based
Details: not given

Chain of Human TRPA1 (O75762 whole entry, looked up): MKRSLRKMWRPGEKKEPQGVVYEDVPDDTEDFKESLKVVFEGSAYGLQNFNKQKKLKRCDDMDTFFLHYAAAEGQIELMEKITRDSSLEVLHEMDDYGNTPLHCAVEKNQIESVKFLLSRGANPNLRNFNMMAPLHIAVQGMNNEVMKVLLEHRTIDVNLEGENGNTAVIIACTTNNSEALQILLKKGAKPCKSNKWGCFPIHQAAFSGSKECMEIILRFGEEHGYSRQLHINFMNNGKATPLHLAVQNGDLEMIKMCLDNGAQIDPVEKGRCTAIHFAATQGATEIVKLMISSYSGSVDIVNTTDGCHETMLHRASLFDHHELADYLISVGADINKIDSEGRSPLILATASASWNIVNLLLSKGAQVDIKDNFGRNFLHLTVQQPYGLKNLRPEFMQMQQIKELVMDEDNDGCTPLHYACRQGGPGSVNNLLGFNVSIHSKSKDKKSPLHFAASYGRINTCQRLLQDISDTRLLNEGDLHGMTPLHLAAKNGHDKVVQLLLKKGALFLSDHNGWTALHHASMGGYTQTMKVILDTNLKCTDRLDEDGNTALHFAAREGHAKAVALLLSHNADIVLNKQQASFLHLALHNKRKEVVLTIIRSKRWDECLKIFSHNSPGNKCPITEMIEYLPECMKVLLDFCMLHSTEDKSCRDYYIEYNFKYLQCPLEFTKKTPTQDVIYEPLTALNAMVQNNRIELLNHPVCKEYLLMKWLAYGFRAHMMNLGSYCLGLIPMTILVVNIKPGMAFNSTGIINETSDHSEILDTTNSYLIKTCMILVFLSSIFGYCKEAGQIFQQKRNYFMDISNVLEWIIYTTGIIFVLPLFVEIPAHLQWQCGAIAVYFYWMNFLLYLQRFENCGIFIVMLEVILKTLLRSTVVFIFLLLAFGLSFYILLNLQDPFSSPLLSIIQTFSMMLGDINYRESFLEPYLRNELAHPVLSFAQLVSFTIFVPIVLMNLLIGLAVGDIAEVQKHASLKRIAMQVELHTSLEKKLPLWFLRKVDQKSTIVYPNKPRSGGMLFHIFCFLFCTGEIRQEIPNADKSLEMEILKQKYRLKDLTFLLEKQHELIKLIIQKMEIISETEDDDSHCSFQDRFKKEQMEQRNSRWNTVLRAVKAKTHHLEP

Compound | pEC50 values for TRPA1 agonism
COC(=O)c1ccc2c(c1)Cc1ccccc1C=N2 [Compound 3] | 9.24
COC(=O)c1ccc2c(c1)Oc1ccccc1N=C2 [Compound 10] | 7.28
COC(=O)c1cccc2c1Oc1ccccc1N=C2 [Compound 12] | 10.22
CCCCOC(=O)c1cccc2c1Cc1ccccc1N=C2 [Compound 13] | 8.07
COC(=O)c1cccc2c1Cc1ccccc1C=N2 [Compound 17] | 9.24
NC(=O)c1cccc2c1Oc1ccccc1N=C2 [Compound 21] | 10.12
COC(=O)c1cccc2c1Oc1ccccc1C=N2 [Compound 23] | 9.93

Same assay, conditions: pEC50 values for TRPA1 agonism

Compound | EC50
COC(=O)c1ccc2c(c1)C=Nc1ccccc1C2 [Compound 1] | 93.3 nM
O=C(O)c1cccc2c1Cc1ccccc1N=C2 [Compound 4] | 363 nM
CCN(CC)C(=O)c1cccc2c1Cc1ccccc1N=C2 [Compound 5] | 44.7 nM
COCCCNC(=O)c1cccc2c1Cc1ccccc1N=C2 [Compound 6] | 8.71 nM
COCCCNC(=O)c1cccc2c1Cc1ccccc1N=C2 [Compound 7] | 5.89 nM
CN1CCN(C(=O)c2ccc3c(c2)Cc2ccccc2C=N3)CC1 [Compound 8] | 3.16 nM
COC(=O)c1cccc2c1Oc1ccccc1N=C2 [Compound 11] | 0.0813 nM
CCCCOC(=O)c1cccc2c1Cc1ccccc1N=C2 [Compound 14] | 5.62 nM
CN1CCN(C(=O)c2ccc3c(c2)Cc2ccccc2N=C3)CC1 [Compound 15] | 1620 nM
COC(=O)c1cccc2c1N=Cc1ccccc1C2 [Compound 18] | 27.5 nM
COC(=O)c1cccc2c1C=Nc1ccccc1C2 [Compound 19] | 28.8 nM
COC(=O)c1ccc2c(c1)N=Cc1ccccc1C2 [Compound 20] | 28.2 nM
COC(=O)c1cccc2c1Oc1ccccc1C=N2 [Compound 24] | 0.0741 nM
COC(=O)c1cccc2c1Cc1ccccc1C=N2 [Compound 25] | 0.447 nM
COC(=O)c1cccc2c1N=Cc1ccccc1C2 [Compound 26] | 38 nM
